pIC50: −log10 of the molar value. ≈ marks a conversion by molar mass, not a printed value.
How the values were obtained:
[1] = system: Trypanosoma brucei brucei; assay: Antitrypanosomal activity against Trypanosoma brucei brucei S427 after 48 hrs by alamar blue assay; assay type: functional; conditions: S427, 48 h
K562 = assay: Cytotoxicity against human K562 cells after 24 hrs by MTT assay; assay type: functional, cell-based; conditions: for pIC50: Homo sapiens, K562, 24 h, read-out: IC50; for IC50: k562
Jurkat = assay: Cytotoxicity against human Jurkat cells after 24 hrs by MTT assay; assay type: functional, cell-based
U-937 = assay: Cytotoxicity against human U937 cells after 24 hrs by MTT assay; assay type: functional, cell-based; conditions: U-937, 24 h
[2] = Inhibition of NF-kappaB activity in TNFalpha-stimulated human K562 cells after 24 hrs by luciferase reporter gene assay; assay type: cell-based; conditions: K562, 24 h

| MIC [1] | pIC50 [2] | SMILES | pIC50 (K562) | pIC50 (Jurkat) | pIC50 (U-937) | IC50 (K562) |
| --- | --- | --- | --- | --- | --- | --- |
| > 100 µM |  | C[C@H]1CCC[C@H]2O[C@@H]2C(=O)c2c(O)cc(O)cc2CC(=O)O1 |  |  |  |  |
| > 100 µM |  | C[C@H]1CCC/C=C\C(=O)c2c(O)cc(O)cc2CC(=O)O1 |  |  |  |  |
| 18.7 µM (≈ 6.26 µg/mL) | 4.80 | COc1cc(CO)cc2c1C(=O)c1c(O)cc(O)c(Cl)c1C2=O | 4.40 | 4.55 | 4.66 |  |
| 78.6 µM (≈ 25.1 µg/mL) | 5.80 | COc1cc(C)cc2c1C(=O)c1c(O)cc(O)c(Cl)c1C2=O | 4.61 | 4.88 | 5.12 |  |
| 9.75 µM (≈ 3.13 µg/mL) |  | COc1cc(C)cc2c1C(=O)c1c(O)cc(O)c(Cl)c1C2O (configuration not stated) |  |  |  |  |
| > 100 µM |  | Cc1cc(=O)c2c(C)cc(O)cc2o1 |  |  |  |  |
| 11 µM (≈ 3.12 µg/mL) | < 4.00 | COc1cc(C)cc2c1C(=O)c1c(O)cc(O)cc1C2=O [1-O-METHYLEMODIN] |  | < 4.00 | 4.05 | Not Active |
| 14.8 µM |  | C=C1CC[C@@H]2C(C)(C)CCC[C@@]2(C)[C@@H]1CC/C(C)=C/Cn1c[n+](C)c2ncnc(N)c21 [AGELASINE D] |  |  |  |  |
| 41.7 µM (≈ 12.5 µg/mL) | < 4.00 | COc1cc(CO)cc2c1C(=O)c1c(O)cc(O)cc1C2=O [CARVIOLIN] |  | < 4.00 | < 4.00 | Not Active |
| > 100 µM | 5.25 | C[C@H]1CCC/C=C/C(=O)c2c(O)cc(O)cc2CC(=O)O1 [DEHYDROCURVULARIN] | 4.43 | 5.26 | 5.60 |  |
| > 100 µM | 4.34 | COc1cc(C)cc2c1C(=O)c1c(O)cc(O)c(Cl)c1[C@H]2[C@H]1c2cc(C)cc(OC)c2C(=O)c2c(O)cc(O)c(Cl)c21 [NEOBULGARONE E] | < 4.00 | 4.08 | 4.32 |  |
| > 100 µM | < 4.00 | COc1cc(C)cc2c1C(=O)c1c(O)cc(O)c(Cl)c1[C@H]2[C@H]1c2cc(CO)cc(OC)c2C(=O)c2c(O)cc(O)c(Cl)c21 [NEOBULGARONE G] |  | < 4.00 | < 4.00 | Not Active |
| > 100 µM |  | C[S+]([O-])c1cccc2ccc(=O)oc12 (configuration not stated) [SULFIMARINE] |  |  |  |  |
| 0.06 µM (≈ 0.0778 µg/mL) |  | Cc1ccc(C(=O)Nc2ccc(S(=O)(=O)O)c3cc(S(=O)(=O)O)cc(S(=O)(=O)O)c23)cc1NC(=O)c1cccc(NC(=O)Nc2cccc(C(=O)Nc3cc(C(=O)Nc4ccc(S(=O)(=O)O)c5cc(S(=O)(=O)O)cc(S(=O)(=O)O)c45)ccc3C)c2)c1 [SURAMIN] |  |  |  |  |
| 6.29 µM (≈ 3.12 µg/mL) | 4.32 | C/C=C/C=C/C(=O)C1=C(O)[C@@]2(C)[C@H]3C(C(=O)/C=C/C=C/C)=C(O)[C@@]4(C)[C@@H]1[C@]1(C)O[C@@]4(O)[C@@]3(C)O[C@@]12O [TRICHODIMEROL] | 4.13 | 4.55 | 4.78 |  |

| SMILES | MIC [1] | pIC50 [2] | pIC50 (K562) | pIC50 (Jurkat) | pIC50 (U-937) | IC50 (K562) |
| --- | --- | --- | --- | --- | --- | --- |
| CO[C@H]1CCC[C@H](C)OC(=O)Cc2cc(O)cc(O)c2C(=O)C1 [11ALPHA-METHOXYCURVULARIN] | 9.68 µM (≈ 3.12 µg/mL) | 5.00 | 4.39 | 5.64 | 5.34 |  |
| CO[C@@H]1CCC[C@H](C)OC(=O)Cc2cc(O)cc(O)c2C(=O)C1 [11BETA-METHOXYCURVULARIN] | 4.96 µM (≈ 1.6 µg/mL) | 5.33 | 4.91 | 5.41 | 5.74 |  |
